Results as given in publication PMC12093056, “Mechanistic insights into the ATP-mediated and species-dependent inhibition of TrpRS by chuangxinmycin” (RSC Chemical Biology, 2025).

What was measured:
EcTrpRS [1] = target: T1, EcTrpRS (Escherichia coli, UniProt P00954); test: X-ray crystal structure; assay type: binding
T1 construct: gene trpS; C-terminal 6xHis tag (pET-28a), no tag cleavage told; E. coli BL21(DE3); two chains in asymmetric unit

SaTrpRS [2] = target: T2, SaTrpRS (Staphylococcus aureus, UniProt P67594); test: X-ray crystal structure; assay type: binding; conditions: Trp site
T2 construct: gene trpS; codon-optimised synthetic gene, C-terminal 6xHis tag (pET-28a), no tag cleavage told; E. coli BL21(DE3); dimer
T2 sequence (P67594 whole entry): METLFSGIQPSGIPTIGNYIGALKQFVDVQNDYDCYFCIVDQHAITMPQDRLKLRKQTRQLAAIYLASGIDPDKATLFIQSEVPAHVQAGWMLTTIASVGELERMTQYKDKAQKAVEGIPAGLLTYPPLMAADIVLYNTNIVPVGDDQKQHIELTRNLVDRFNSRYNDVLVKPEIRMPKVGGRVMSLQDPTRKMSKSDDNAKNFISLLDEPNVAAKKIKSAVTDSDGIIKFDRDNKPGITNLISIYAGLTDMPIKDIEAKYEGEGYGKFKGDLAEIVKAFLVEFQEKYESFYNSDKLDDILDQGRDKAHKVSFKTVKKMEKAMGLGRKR

EcTrpRS [3] = target: T1, EcTrpRS; test: ATP consumption, Kinase-Glo luminescence; assay type: biochemical; conditions: 2 μM ATP, 10 μM Trp, 40 mM MgCl2, 50 mM NH2OH instead of tRNA, pH 7.5, 37 °C; Trp site
SaTrpRS [4] = target: T2, SaTrpRS; test: ATP consumption, Kinase-Glo luminescence; assay type: biochemical; conditions: 2 μM ATP, 10 μM Trp, 40 mM MgCl2, 50 mM NH2OH instead of tRNA, pH 7.5, 37 °C; Trp site
SaTrpRS [5] = target: T2, SaTrpRS; test: ATP consumption, Kinase-Glo luminescence; assay type: biochemical; conditions: 2 μM ATP, 10 μM Trp, 40 mM MgCl2, 50 mM NH2OH instead of tRNA, pH 7.5, 37 °C, 1.5 h

Nc1ncnc2c1ncn2[C@@H]1O[C@H](COP(=O)(O)OC(=O)[C@@H](N)Cc2c[nH]c3ccccc23)[C@@H](O)[C@H]1O [tryptophanyl-5′-AMP]
X-ray crystal structure (EcTrpRS [1]; 2.24 Å, endogenous, closed chain B, enzyme-bound reaction intermediate): chain B is in a closed state and binds to an endogenous tryptophanyl-5′-AMP (TrpAMP) molecule

N[C@@H](Cc1c[nH]c2ccccc12)C(=O)O [tryptophan]
X-ray crystal structure (SaTrpRS [2]; 2.32 Å): SaTrpRS in complex with Trp (SaTrpRS/Trp complex)

O=C(O)C1Cc2c[nH]c3cccc(c23)S1 (centres unmarked) [dCXM, 3-demethylchuangxinmycin]
X-ray crystal structure (EcTrpRS [1]; Trp site): The complex structures of these analogues with EcTrpRS and SaTrpRS were solved.
inhibition (EcTrpRS [3]): Inhibition of EcTrpRS by CXM, dCXM, and mCXM, as measured by ATP hydrolysis assays

CC1c2c[nH]c3cccc(c23)SC1C(=O)O (centres unmarked) [CXM, chuangxinmycin]
X-ray crystal structure (EcTrpRS [1]; 2.24 Å, open chain A, Trp site, also ternary with ATP and Mg2+ (1.92 and 2.15 Å)): Chain A exists in an open state and binds to a CXM molecule
inhibition (EcTrpRS [3]): Inhibition of EcTrpRS by CXM, dCXM, and mCXM, as measured by ATP hydrolysis assays

CC1(C)c2c[nH]c3cccc(c23)S[C@H]1C(=O)O [mCXM, 3-methylchuangxinmycin]
X-ray crystal structure (SaTrpRS [2]): The complex structures of these analogues with EcTrpRS and SaTrpRS were solved.
X-ray crystal structure (EcTrpRS [1]; Trp site): The complex structures of these analogues with EcTrpRS and SaTrpRS were solved.
inhibition (EcTrpRS [3]): The inhibitory activity of mCXM against EcTrpRS is lower than that of CXM
inhibition (SaTrpRS [4]): mCXM exhibits stronger inhibition of SaTrpRS compared to EcTrpRS

Nc1ncnc2c1ncn2[C@@H]1O[C@H](COP(=O)(O)OP(=O)(O)OP(=O)(O)O)[C@@H](O)[C@H]1O [ATP]
ATP consumption, Kinase-Glo luminescence (SaTrpRS [5]): The activity of TrpRS was measured vis ATP hydrolysis using Kinase-Glo® kit
